According to patent publication US10358442B2, “2-homopiperazine-1-yl-4H-1,3-benzothiazine-4-one derivatives and process for the preparation of 2-(homo)piperazine 1,3-benzothiazine-4-one hydrochlorides” (Ecole Polytechnique Federale De Lausanne (EPFL), priority 2015, dated 2019):
≈ marks a conversion by molar mass, not a printed value.

Experiments:
M. tuberculosis H37Rv = experiment: resazurin reduction assay (MIC99), M. tuberculosis H37Rv; format: cell-based; details: Mycobacterium tuberculosis, BTZ-susceptible wild type strain
Description: Activity against M. tuberculosis strains H37Rv and NBT1 was determined by the resazurin reduction assay (MIC99). The method is described in detail in: J. C. Palomino, A. Martin, M. Camacho, H. Guerra, J. Swings, F. Portaels, Antimicrob. Agents Chemother., 2002, 46, 2720-2722.

Row | SMILES | melting point | MIC99 (M. tuberculosis H37Rv)
1 | Cl.O=c1nc(N2CCN(CCCCOc3ccccc3)CC2)sc2c([N+](=O)[O-])cc(C(F)(F)F)cc12 | 256 to 258 °C | –
2 | CCCCCCCN1CCN(c2nc(=O)c3cc(C(F)(F)F)cc([N+](=O)[O-])c3s2)CC1.Cl (hydrate or solvate) | 254 to 256 °C | –
3 | CCCCCN1CCCN(c2nc(=O)c3cc(C(F)(F)F)cc([N+](=O)[O-])c3s2)CC1.Cl [Compound 2, 8-Nitro-2-(4-pentyl-1,4-diazepan-1-yl)-6-(trifluoromethyl)-4H-1,3-benzothiazin-4-one Hydrochloride] | 246 to 248 °C | 0.2 ng/mL
4 | Cl.O=c1nc(N2CCN(CCC3CCCCC3)CC2)sc2c([N+](=O)[O-])cc(C(F)(F)F)cc12 (hydrate or solvate) | 271 to 273 °C | –
5 | Cl.O=c1nc(N2CCCN(CCc3ccccc3)CC2)sc2c([N+](=O)[O-])cc(C(F)(F)F)cc12 (hydrate or solvate) [Compound 7, 8-Nitro-2-[4-(2-phenylethyl)-1,4-diazepan-1-yl]-6-(trifluoromethyl)-4H-1,3-benzothiazin-4-one Hydrochloride] | 264 to 267 °C | –
6 | Cl.O=c1nc(N2CCCN(CCC3CCCCC3)CC2)sc2c([N+](=O)[O-])cc(C(F)(F)F)cc12 [Compound 4, 2-[4-(2-Cyclohexylethyl)-1,4-diazepan-1-yl]-8-nitro-6-(trifluoromethyl)-4H-1,3-benzothiazin-4-one Hydrochloride] | 274 to 277 °C | 0.2 ng/mL
7 | Cl.O=c1nc(N2CCCN(CC3CCCCC3)CC2)sc2c([N+](=O)[O-])cc(C(F)(F)F)cc12 [Compound 1, 2-[4-(Cyclohexylmethyl)-1,4-diazepan-1-yl]-8-nitro-6-(trifluoromethyl)-4H-1,3-benzothiazin-4-one Hydrochloride] | 269 to 271 °C | 1 ng/mL
8 | O=c1nc(N2CCN(CC3CCCCC3)CC2)sc2c([N+](=O)[O-])cc(C(F)(F)F)cc12 [PBTZ169, 2-[4-(cyclohexylmethyl)piperazin-1-yl]-8-nitro-6-(trifluoromethyl)-4H-1,3-benzothiazin-4-one, reference compound] | – | 0.3 ng/mL (≈ 0.657 nM)
9 | Cl.O=c1nc(N2CCCN(C3CCCCC3)CC2)sc2c([N+](=O)[O-])cc(C(F)(F)F)cc12 [Compound 6, 2-(4-Cyclohexyl-1,4-diazepan-1-yl)-8-nitro-6-(trifluoromethyl)-4H-1,3-benzothiazin-4-one Hydrochloride] | – | 1 ng/mL
10 | CCCCCCCN1CCCN(c2nc(=O)c3cc(C(F)(F)F)cc([N+](=O)[O-])c3s2)CC1.Cl [Compound 5, 2-(4-Heptyl-1,4-diazepan-1-yl)-8-nitro-6-(trifluoromethyl)-4H-1,3-benzothiazin-4-one Hydrochloride] | 256 to 258 °C | 0.3 ng/mL
11 | Cl.O=c1nc(N2CCCN(CCc3ccccc3)CC2)sc2c([N+](=O)[O-])cc(C(F)(F)F)cc12 [Compound 7, 8-Nitro-2-[4-(2-phenylethyl)-1,4-diazepan-1-yl]-6-(trifluoromethyl)-4H-1,3-benzothiazin-4-one Hydrochloride] | – | 0.8 ng/mL
12 | Cl.O=c1nc(N2CCCN(C3CCCCC3)CC2)sc2c([N+](=O)[O-])cc(C(F)(F)F)cc12 (hydrate or solvate) [Compound 6, 2-(4-Cyclohexyl-1,4-diazepan-1-yl)-8-nitro-6-(trifluoromethyl)-4H-1,3-benzothiazin-4-one Hydrochloride] | 290 to 293 °C | –
13 | CCCCCCN1CCCN(c2nc(=O)c3cc(C(F)(F)F)cc([N+](=O)[O-])c3s2)CC1.Cl [Compound 3, 2-(4-Hexyl-1,4-diazepan-1-yl)-8-nitro-6-(trifluoromethyl)-4H-1,3-benzothiazin-4-one Hydrochloride] | 249 to 251 °C | 0.2 ng/mL
14 | CCCCN1CCN(c2nc(=O)c3cc(C(F)(F)F)cc([N+](=O)[O-])c3s2)CC1.Cl (hydrate or solvate) | 239 to 241 °C | –
